Reference: patent publication US20140371237A1, “p19Arf, HMGA2 and MDM2 For Use in the Diagnosis and Treatment of Aberrant Cell Growth” (University of Bremen, priority 2010, published 2014)

Legend:
[1] = system: tissue explants from leiomyomas; test: qRT-PCR of p21, BAX and Ki-67 in tissue explants from leiomyomas incubated with nutlin-3; assay type: cell-based, human
Experimental: Altogether, tissue samples of 36 patients have been investigated herein; see Table 1 in FIGS. 20A and 20B. The study was approved by the local ethics committee and prior to surgery; informed written consent was obtained from all patients. For gene expression studies samples of 52 UL from 31 patients along with matching myometrium were taken during surgery, immediately frozen in liquid nitrogen, and stored at −80° C. for RNA isolation and qRT-PCR analyses of p14^Arf. For MDM2 inhibition six tissue samples of UL from four patients as well as matching myometrium were taken during surgery and immediately transferred into sterile Hank's solution.
[…] As controls tissue explants were incubated in medium 199 supplemented with 20% FCS without nutlin-3 for 72 h.
About 250 ng of total RNA were reverse transcribed with 200 U/μl of M-MLV reverse transcriptase (Invitrogen, Karlsruhe, Germany), RNase Out, 150 ng random hexamers and 10 mM dNTPs according to the manufacturer's instructions. RNA was denatured at 65° C. for 5 min and subsequently kept on ice for 1 min. After adding the enzyme to the RNA primer mixes, samples were incubated for 10 min at 25° C. to allow annealing of the random hexamers. Reverse transcription was performed at 37° C. for […] followed by inactivation of the reverse transcriptase at 70° C. for 15 min.
Relative quantification of transcription levels was carried out by real-time PCR analyses using the Applied Biosystems 7300 real-time PCR system (Applied Biosystems, Darmstadt, Germany). Commercially available gene expression assays (Applied Biosystems, Darmstadt, Germany) were used for quantification of mRNA of human p14^Arf (Hs00924091), BAX (Hs00180269_m1), CDKN1A (Hs 99999142), and MKI67 (Hs00606991_m1). HPRT served as endogenous control. All qRT-PCR experiments were done in triplicate.

[2] = system: canine ADSCs; test: Treatment of canine ADSCs with nutlin-3, qRT-PCR of HMGA2 and p21; assay type: cell-based; conditions: two donors, 30 μM and 50 μM, 72 h
Experimental: Canine subcutaneous adipose tissue was taken during surgery, transferred into sterile Hank's solution and minced for cell culture into small pieces followed by treatment with 0.26% (200 U/ml) collagenase (Serva, Heidelberg, Germany). From these samples ADSCs were isolated. Briefly, after 1-2 hours, the dissociated cells were transferred into sterile 25 cm^2 cell culture flasks containing 5 ml medium 199 (Gibco, Karlsruhe, Germany), supplemented with 20% fetal bovine serum (FCS, Invitrogen, Karlsruhe, Germany) and 2% penicillin-streptomycin (Biochrom, Berlin, Germany). The cultures were incubated in 5% CO2 air at 37° C. and medium was changed every two to three days. […]
Relative quantification of transcription levels was carried out by real-time PCR analyses using the Applied Biosystems 7300 Real-Time PCR system (Applied Biosystems, Darmstadt, Germany). For quantification of mRNA levels of canine p21a commercially available gene expression assay was used (Hs99999142) (Applied Biosystems, Darmstadt, Germany). […] For canine cells the housekeeping gene beta-glucuronidase (GUSB) served as the reference for relative quantification because in contrast to some other housekeeping genes its expression turned out not to increase in serum starved ADSCs when induced by fetal serum in our own experiments. […]

[3] = explants from four leiomyomas, 3 μM and 10 μM, 72 h, compared to controls
[4] = six days, three UL along with matching myometrium, dose-dependent

COc1ccc(C2=N[C@@H](c3ccc(Cl)cc3)[C@@H](c3ccc(Cl)cc3)N2C(=O)N2CCNC(=O)C2)c(OC(C)C)c1 [nutlin-3]
expression of BAX [1, 3]: concentration-dependent highly significant (p<0.01 or p<0.001, respectively) increases
expression of Ki-67 [1, 3]: strongly decreased
expression of p21 [1, 3]: concentration-dependent highly significant (p<0.01 or p<0.001, respectively) increases
expression of Ki-67, one exceptional case ([1]; one leiomyoma explant, 3 μM, 72 h): an increase of Ki-67 expression was noted
expression of BAX [1, 4]: significant increase
expression of Ki-67 [1, 4]: decreased expression
expression of p21 [1, 4]: significant increase
expression of HMGA2 [2]: significant decrease
expression of p21 [2]: increase
